# Test results: ChEMBL document CHEMBL1201862, “PubChem BioAssay data set” (2004)
#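 The compound was tested at five concentrations on cells cultured in 96-well plates, with a 48-hour exposure period. Here, GI50 denotes the concentration required for 50% inhibition of growth.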 Activity calls are given as the source filed them. Rule as the data show it: active = GI50 up to about 1.1 µM and inactive = higher.
# Assays:
# Experiment in all cases: NCI tumour cell line growth inhibition, 48 h
# A498 = system: A498
# A549 = system: A549
# ACHN = system: ACHN
# HCC 2998 = system: HCC 2998
# Hs-578T = system: Hs-578T
# M14 = system: M14
# MDA-MB-231 = system: MDA-MB-231
# NCI-H23 = system: NCI-H23
# OVCAR-5 = system: OVCAR-5
# RPMI-8226 = system: RPMI-8226
# RXF 393 = system: RXF 393
# SF-268 = system: SF-268
# SF-539 = system: SF-539
# SK-MEL-5 = system: SK-MEL-5
# SK-OV-3 = system: SK-OV-3
# U-251 = system: U-251
# UACC-257 = system: UACC-257
# UACC-62 = system: UACC-62
# NCI-H522 = system: NCI-H522
SMILES,GI50 (A498),GI50 (A549),GI50 (ACHN),GI50 (HCC 2998),GI50 (Hs-578T),GI50 (M14),GI50 (MDA-MB-231),GI50 (NCI-H23),GI50 (OVCAR-5),GI50 (RPMI-8226),GI50 (RXF 393),GI50 (SF-268),GI50 (SF-539),GI50 (SK-MEL-5),GI50 (SK-OV-3),GI50 (U-251),GI50 (UACC-257),GI50 (UACC-62),GI50 (NCI-H522)
Cc1ccc(-c2cc(-c3c(C)nn(C)c(=O)c3N)n[nH]2)cc1,28.5 µM (inactive),> 100 µM (inactive),> 100 µM (inactive),> 100 µM (inactive),> 100 µM (inactive),> 100 µM (inactive),> 100 µM (inactive),> 100 µM (inactive),> 100 µM (inactive),99.1 µM (inactive),> 100 µM (inactive),> 100 µM (inactive),> 100 µM (inactive),> 100 µM (inactive),> 100 µM (inactive),> 100 µM (inactive),> 100 µM (inactive),> 100 µM (inactive),–
N=C(N)NC(=N)Nc1ccccc1.Sc1nc2ccccc2s1,> 100 µM (inactive),> 100 µM (inactive),> 100 µM (inactive),> 100 µM (inactive),> 100 µM (inactive),> 100 µM (inactive),> 100 µM (inactive),> 100 µM (inactive),> 100 µM (inactive),–,> 100 µM (inactive),> 100 µM (inactive),> 100 µM (inactive),> 100 µM (inactive),> 100 µM (inactive),> 100 µM (inactive),> 100 µM (inactive),> 100 µM (inactive),53.8 µM (inactive)
O=C1C(c2c(O)[nH]c3ccccc23)=Nc2ccc(Br)cc21,4.39 µM (inactive),27.2 µM (inactive),14.5 µM (inactive),25.6 µM (inactive),19.5 µM (inactive),93.5 µM (inactive),23.3 µM (inactive),51.8 µM (inactive),49.3 µM (inactive),75.7 µM (inactive),12.9 µM (inactive),25.4 µM (inactive),–,> 100 µM (inactive),18.4 µM (inactive),19.5 µM (inactive),58.6 µM (inactive),17.6 µM (inactive),28.5 µM (inactive)
Cc1ccc(/C=C2\Cc3cc(C)c(C)cc3C2=O)c(C(=O)O)c1,22.8 µM (inactive),30.8 µM (inactive),46.3 µM (inactive),26.1 µM (inactive),37.9 µM (inactive),–,28.2 µM (inactive),> 10 µM (inactive),–,40.4 µM (inactive),28.2 µM (inactive),24.3 µM (inactive),13.7 µM (inactive),29.1 µM (inactive),–,26.1 µM (inactive),24.5 µM (inactive),61.7 µM (inactive),22.1 µM (inactive)
CNC(=O)Nn1c(SC)nc2ccccc21,> 100 µM (inactive),> 100 µM (inactive),> 100 µM (inactive),> 100 µM (inactive),> 100 µM (inactive),> 100 µM (inactive),> 100 µM (inactive),> 100 µM (inactive),> 100 µM (inactive),> 100 µM (inactive),> 100 µM (inactive),> 100 µM (inactive),–,> 100 µM (inactive),> 100 µM (inactive),> 100 µM (inactive),> 100 µM (inactive),> 100 µM (inactive),> 100 µM (inactive)
O=C1NC2c3c(I)sc(I)c3/C(=N\O)C2O1 (stereo not drawn),33.6 µM (inactive),48.9 µM (inactive),17 µM (inactive),35.1 µM (inactive),11.5 µM (inactive),36.8 µM (inactive),24 µM (inactive),23.2 µM (inactive),30.5 µM (inactive),67.9 µM (inactive),12.7 µM (inactive),24.3 µM (inactive),14.2 µM (inactive),–,34.5 µM (inactive),23.1 µM (inactive),58.3 µM (inactive),20.7 µM (inactive),–
OCCOc1ccccc2cccc1-2,> 100 µM (inactive),> 100 µM (inactive),> 100 µM (inactive),> 100 µM (inactive),> 100 µM (inactive),> 100 µM (inactive),> 100 µM (inactive),> 100 µM (inactive),> 100 µM (inactive),61.8 µM (inactive),–,> 100 µM (inactive),> 100 µM (inactive),> 100 µM (inactive),> 100 µM (inactive),> 100 µM (inactive),> 100 µM (inactive),> 100 µM (inactive),> 100 µM (inactive)
COC(=O)C1=C(O)C(C(=O)OC)[C@]2(O)[C@H](C(=O)OC)[C@H]1C[C@@H](c1ccc(Cl)cc1Cl)[C@H]2C(=O)OC (stereo partly drawn),11.4 µM (inactive),4.36 µM (inactive),11 µM (inactive),10.1 µM (inactive),15.5 µM (inactive),6.24 µM (inactive),19.5 µM (inactive),4.34 µM (inactive),17 µM (inactive),1.75 µM (inactive),7.76 µM (inactive),7.62 µM (inactive),2.84 µM (inactive),4.91 µM (inactive),13.2 µM (inactive),2.72 µM (inactive),10 µM (inactive),9.46 µM (inactive),–
O=C(O)CCSC1=NCCN1,> 100 µM (inactive),> 100 µM (inactive),> 100 µM (inactive),> 100 µM (inactive),> 100 µM (inactive),> 100 µM (inactive),> 100 µM (inactive),> 100 µM (inactive),> 100 µM (inactive),> 100 µM (inactive),> 100 µM (inactive),> 100 µM (inactive),–,> 100 µM (inactive),> 100 µM (inactive),> 100 µM (inactive),64 µM (inactive),> 100 µM (inactive),> 100 µM (inactive)
Cc1cc([C@H](C#N)c2nc3ccccc3[nH]2)nc(Cl)n1,41.8 µM (inactive),33.9 µM (inactive),38.2 µM (inactive),20.3 µM (inactive),> 100 µM (inactive),–,59.3 µM (inactive),30.1 µM (inactive),–,5.65 µM (inactive),33.3 µM (inactive),> 100 µM (inactive),61.9 µM (inactive),13.7 µM (inactive),> 100 µM (inactive),23.6 µM (inactive),26.5 µM (inactive),22.3 µM (inactive),–
O=C1Nc2ccc(S(=O)(=O)NCCO)cc2/C1=C1/Nc2ccccc2C1=O,2.53 µM (inactive),> 100 µM (inactive),6.97 µM (inactive),53 µM (inactive),6.73 µM (inactive),> 100 µM (inactive),12 µM (inactive),28.4 µM (inactive),46.5 µM (inactive),92.5 µM (inactive),4.36 µM (inactive),9.59 µM (inactive),–,12.7 µM (inactive),5.42 µM (inactive),3.16 µM (inactive),> 100 µM (inactive),7.18 µM (inactive),1.86 µM (inactive)
Cc1oc2nc(N(C)C)nc(NN)c2c1C,> 100 µM (inactive),> 100 µM (inactive),> 100 µM (inactive),> 100 µM (inactive),> 100 µM (inactive),> 100 µM (inactive),> 100 µM (inactive),> 100 µM (inactive),> 100 µM (inactive),> 100 µM (inactive),> 100 µM (inactive),> 100 µM (inactive),> 100 µM (inactive),> 100 µM (inactive),–,> 100 µM (inactive),> 100 µM (inactive),> 100 µM (inactive),> 100 µM (inactive)
CCOC(=O)c1cc(C2CCN(Cc3ccccc3)C2=O)c(C(=O)/C=C(/C)N)[nH]1 (stereo not drawn),> 100 µM (inactive),73.6 µM (inactive),> 100 µM (inactive),> 100 µM (inactive),98.4 µM (inactive),> 100 µM (inactive),> 100 µM (inactive),> 100 µM (inactive),> 100 µM (inactive),> 100 µM (inactive),> 100 µM (inactive),> 100 µM (inactive),–,> 100 µM (inactive),70.5 µM (inactive),> 100 µM (inactive),> 100 µM (inactive),> 100 µM (inactive),57.3 µM (inactive)
CNCCCn1c2ccccc2c2c3c(c(-c4ccsc4)cc21)C(=O)NC3=O,< 0.0104 µM (active),1.17 µM (inactive),< 0.0192 µM (active),2.67 µM (inactive),1.85 µM (inactive),0.0408 µM (active),1.57 µM (inactive),0.0822 µM (active),1.5 µM (inactive),–,0.0112 µM (active),1.51 µM (inactive),0.0281 µM (active),0.735 µM (active),1.19 µM (inactive),1.95 µM (inactive),1.58 µM (inactive),1.49 µM (inactive),1.66 µM (inactive)
C=CCc1cccc2cc(C(=O)Nc3ccccn3)c(=N)oc12,> 100 µM (inactive),> 100 µM (inactive),45.4 µM (inactive),> 100 µM (inactive),> 100 µM (inactive),> 100 µM (inactive),> 100 µM (inactive),> 100 µM (inactive),> 100 µM (inactive),> 100 µM (inactive),> 100 µM (inactive),> 100 µM (inactive),92.5 µM (inactive),> 100 µM (inactive),> 100 µM (inactive),> 100 µM (inactive),> 100 µM (inactive),> 100 µM (inactive),–
COc1ccc2c(CC(=O)O)cc(=O)oc2c1,> 100 µM (inactive),> 100 µM (inactive),> 100 µM (inactive),> 100 µM (inactive),> 100 µM (inactive),> 100 µM (inactive),> 100 µM (inactive),> 100 µM (inactive),> 100 µM (inactive),> 100 µM (inactive),> 100 µM (inactive),> 100 µM (inactive),> 100 µM (inactive),> 100 µM (inactive),–,> 100 µM (inactive),> 100 µM (inactive),> 100 µM (inactive),> 100 µM (inactive)
